Measured values: patent US8207172B2 (Bayer Intellectual Property GmbH, priority 2004, dated 2012)
Counter-ions that a name gives are not always drawn.

How the values were obtained:
[1] = system: BT474 (human breast carcinoma); experiment: In vitro tumor cell proliferation assay (Cell Titer-Glo luminescent cell viability), BT474; type: cell-based; conditions: BT-474, 72 h, BT474 cells, 72 hours of drug exposure, ATP luminescence readout, read-out: IC50, anti-proliferative activity (inhibition of cell proliferation)
Method in brief: (§1)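 IC50 values reflect ATP-based luminescence (CellTiter-Glo) after 72 h compound exposure at 37°C. Both lines, A431 and BT474, were plated in RPMI with 10% FBS and received serial dilutions ranging from 100 μM to 64 pM final at 0.1% DMSO.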

[2] = system: A431 cells (human epidermoid carcinoma); experiment: In vitro tumor cell proliferation assay (Cell Titer-Glo luminescent cell viability), A431; type: cell-based; conditions: A-431, 72 h, 72 hours of drug exposure, ATP luminescence readout, read-out: IC50, anti-proliferative activity (inhibition of cell proliferation)
Method in brief: as §1

| Structure (SMILES) | IC50 [1] [µM] | IC50 [2] [µM] |
| --- | --- | --- |
| OCCn1cc2c(n1)CCc1c-2sc2ncnc(Nc3ccc(OCc4ccccn4)c(Cl)c3)c12 [Example 99, 2-(6-{[3-chloro-4-(pyridin-2-ylmethoxy)phenyl]amino}-4,5-dihydro-2H-pyrimido[5′,4′:4,5]thieno[2,3-e]indazol-2-yl)ethanol] | ≤ 1 | ≤ 5 |
| OC[C@H](O)Cn1cc2c(n1)CCc1c-2sc2ncnc(Nc3ccc(OCc4cccc(F)c4)c(Cl)c3)c12 [Example 76, (R)-3-{6-[3-Chloro-4-(3-fluoro-benzyloxy)-phenylamino]-4,5-dihydro-10-thia-2,3,7,9-tetraaza-cyclopenta[a]fluoren-2-yl}-propane-1,2-diol] | ≤ 1 | ≤ 5 |
| COCCNC(=O)Cn1ncc2c1CCc1c-2sc2ncnc(Nc3ccc(OCc4cccc(F)c4)c(Cl)c3)c12 [Example 207, 2-[6-({3-chloro-4-[(3-fluorobenzyl)oxy]phenyl}amino)-4,5-dihydro-3H-pyrimido[5′,4′:4,5]thieno[2,3-e]indazol-3-yl]-N-(2-methoxyethyl)acetamide] | ≤ 1 | ≤ 50 |
| CN1CCN(CCn2cc3c(n2)CCc2c-3sc3ncnc(Nc4ccc(Oc5cccnc5)cc4)c23)CC1 [Example 340, 2-[2-(4-methylpiperazin-1-yl)ethyl]-N-[4-(pyridin-3-yloxy)phenyl]-4,5-dihydro-2H-pyrimido[5′,4′:4,5]thieno[2,3-e]indazol-6-amine] | ≤ 5 | ≤ 50 |
| OCCNCCn1ncc2c1CCc1c-2sc2ncnc(Nc3ccc(OCc4cccc(F)c4)c(Cl)c3)c12 [Example 264, 2-({2-[6-({3-chloro-4-[(3-fluorobenzyl)oxy]phenyl}amino)-4,5-dihydro-3H-pyrimido[5′,4′:4,5]thieno[2,3-e]indazol-3-yl]ethyl}amino)ethanol] | ≤ 1 | ≤ 50 |
| CCCN1CCC(CCn2cc3c(n2)CCc2c-3sc3ncnc(Nc4ccc(OCc5cccc(F)c5)c(Cl)c4)c23)CC1 [Example 253, N-{3-chloro-4-[(3-fluorobenzyl)oxy]phenyl}-2-[2-(1-propylpiperidin-4-yl)ethyl]-4,5-dihydro-2H-pyrimido[5′,4′:4,5]thieno[2,3-e]indazol-6-amine] | ≤ 1 | ≤ 5 |
| CCN1CCN(C(=O)Cn2ncc3c2CCc2c-3sc3ncnc(Nc4ccc(OCc5cccc(F)c5)c(Cl)c4)c23)CC1 [Example 202, N-{3-chloro-4-[(3-fluorobenzyl)oxy]phenyl}-3-[2-(4-ethylpiperazin-1-yl)-2-oxoethyl]-4,5-dihydro-3H-pyrimido[5′,4′:4,5]thieno[2,3-e]indazol-6-amine] | ≤ 1 | ≤ 5 |
| CN(C)CCNCCn1cc2c(n1)CCc1c-2sc2ncnc(Nc3ccc(OCc4cccc(F)c4)c(Cl)c3)c12 [Example 67, N′-{2-[6-({3-chloro-4-[(3-fluorobenzyl)oxy]phenyl}amino)-4,5-dihydro-2H-pyrimido[5′,4′:4,5]thieno[2,3-e]indazol-2-yl]ethyl}-N,N-dimethylethane-1,2-diamine] | ≤ 1 | ≤ 5 |
| Fc1ccc(Nc2ncnc3sc4c(c23)CCc2nn(CCN3CCCCC3)cc2-4)cc1Cl [Example 11, N-(3-chloro-4-fluorophenyl)-2-(2-piperidin-1-ylethyl)-4,5-dihydro-2H-pyrimido[5′,4′:4,5]thieno[2,3-e]indazol-6-amine] | ≤ 5 | ≤ 5 |
| CCN(CC)C[C@@H](O)Cn1ncc2c1CCc1c-2sc2ncnc(Nc3ccc(OCc4cccc(F)c4)c(Cl)c3)c12 [Example 168, (2R)-1-[6-({3-chloro-4-[(3-fluorobenzyl)oxy]phenyl}amino)-4,5-dihydro-3H-pyrimido[5′,4′:4,5]thieno[2,3-e]indazol-3-yl]-3-(diethylamino)propan-2-ol trifluoroacetate (salt)] | ≤ 1 | ≤ 50 |
| CCN1CCN(CCn2ncc3c2CCc2c-3sc3ncnc(Nc4ccc5c(cnn5Cc5cccc(F)c5)c4)c23)CC1 [Example 294, 3-[2-(4-ethylpiperazin-1-yl)ethyl]-N-[1-(3-fluorobenzyl)-1H-indazol-5-yl]-4,5-dihydro-3H-pyrimido[5′,4′:4,5]thieno[2,3-e]indazol-6-amine] | ≤ 1 | ≤ 50 |
| COCCN1CCN(C[C@@H](O)Cn2cc3c(n2)CCc2c-3sc3ncnc(Nc4ccc(OCc5cccc(F)c5)c(Cl)c4)c23)CC1 [Example 133, (2R)-1-[6-({3-chloro-4-[(3-fluorobenzyl)oxy]phenyl}amino)-4,5-dihydro-2H-pyrimido[5′,4′:4,5]thieno[2,3-e]indazol-2-yl]-3-[4-(2-methoxyethyl)piperazin-1-yl]propan-2-ol] | ≤ 1 | ≤ 50 |
| CCN(CC)CC(=O)N1CCC(n2cc3c(n2)CCc2c-3sc3ncnc(Nc4ccc(OCc5cccc(F)c5)c(Cl)c4)c23)CC1 [Example 220, N-{3-chloro-4-[(3-fluorobenzyl)oxy]phenyl}-2-{1-[(diethylamino)acetyl]piperidin-4-yl}-4,5-dihydro-2H-pyrimido[5′,4′:4,5]thieno[2,3-e]indazol-6-amine] | ≤ 1 | ≤ 5 |
| CS(=O)(=O)OCCn1ncc2c1CCc1c-2sc2ncnc(Nc3ccc(F)c(Cl)c3)c12 [Example 89, 2-{6-[(3-chloro-4-fluorophenyl)amino]-4,5-dihydro-3H-pyrimido[5′,4′:4,5]thieno[2,3-e]indazol-3-yl}ethyl methanesulfonate] | ≤ 50 | ≤ 50 |
| CC(C)CCN1CCC(CCn2cc3c(n2)CCc2c-3sc3ncnc(Nc4ccc(OCc5cccc(F)c5)c(Cl)c4)c23)CC1 [Example 256, N-{3-chloro-4-[(3-fluorobenzyl)oxy]phenyl}-2-{2-[1-(3-methylbutyl)piperidin-4-yl]ethyl}-4,5-dihydro-2H-pyrimido[5′,4′:4,5]thieno[2,3-e]indazol-6-amine] | ≤ 1 | ≤ 5 |
| Fc1ccc(Nc2ncnc3sc4c(c23)CCc2c-4cnn2CCN2CCNCC2)cc1Cl [Example 94, N-(3-chloro-4-fluorophenyl)-3-(2-piperazin-1-ylethyl)-4,5-dihydro-3H-pyrimido[5′,4′:4,5]thieno[2,3-e]indazol-6-amine] | ≤ 5 | ≤ 5 |
| CN1CCN(CCn2ncc3c2CCc2c-3sc3ncnc(Nc4ccc(OCc5cccc(F)c5)c(Cl)c4)c23)CC1 [Example 82, N-{3-chloro-4-[(3-fluorobenzyl)oxy]phenyl}-3-[2-(4-methylpiperazin-1-yl)ethyl]-4,5-dihydro-3H-pyrimido[5′,4′:4,5]thieno[2,3-e]indazol-6-amine] | ≤ 1 | ≤ 5 |
| CN(C)CCNC(=O)Cn1ncc2c1CCc1c-2sc2ncnc(Nc3ccc(OCc4cccc(F)c4)c(Cl)c3)c12 [Example 193, 2-[6-({3-chloro-4-[(3-fluorobenzyl)oxy]phenyl}amino)-4,5-dihydro-3H-pyrimido[5′,4′:4,5]thieno[2,3-e]indazol-3-yl]-N-[2-(dimethylamino)ethyl]acetamide] | ≤ 1 | ≤ 50 |
| CCNC[C@@H](O)Cn1cc2c(n1)CCc1c-2sc2ncnc(Nc3ccc(OCc4cccc(F)c4)c(Cl)c3)c12 [Example 157, (2R)-1-[6-({3-chloro-4-[(3-fluorobenzyl)oxy]phenyl}amino)-4,5-dihydro-2H-pyrimido[5′,4′:4,5]thieno[2,3-e]indazol-2-yl]-3-(ethylamino)propan-2-ol trifluoroacetate (salt)] | ≤ 1 | ≤ 50 |
| Fc1cccc(Cn2ncc3cc(Nc4ncnc5sc6c(c45)CCc4c-6cnn4CCN4CCNCC4)ccc32)c1 [Example 298, N-[1-(3-fluorobenzyl)-1H-indazol-5-yl]-3-(2-piperazin-1-ylethyl)-4,5-dihydro-3H-pyrimido[5′,4′:4,5]thieno[2,3-e]indazol-6-amine] | ≤ 1 | ≤ 5 |
| Cc1ccc(Nc2ncnc3sc4c(c23)CCc2nn(CCN3CCN(C)CC3)cc2-4)cc1O [Example 329, 2-methyl-5-({2-[2-(4-methylpiperazin-1-yl)ethyl]-4,5-dihydro-2H-pyrimido[5′,4′:4,5]thieno[2,3-e]indazol-6-yl}amino)phenol] | ≤ 5 | ≤ 5 |
| CS(=O)(=O)CCNCCn1cc2c(n1)CCc1c-2sc2ncnc(Nc3ccc4c(cnn4Cc4ccccc4)c3)c12 [Example 307, N-(1-benzyl-1H-indazol-5-yl)-2-(2-{[2-(methylsulfonyl)ethyl]amino}ethyl)-4,5-dihydro-2H-pyrimido[5′,4′:4,5]thieno[2,3-e]indazol-6-amine] | ≤ 1 | ≤ 50 |
| CS(=O)(=O)CCNCCn1cc2c(n1)CCc1c-2sc2ncnc(Nc3ccc(OCc4ccccn4)c(Cl)c3)c12 [Example 105, N-[3-chloro-4-(pyridin-2-ylmethoxy)phenyl]-2-(2-{[2-(methylsulfonyl)ethyl]amino}ethyl)-4,5-dihydro-2H-pyrimido[5′,4′:4,5]thieno[2,3-e]indazol-6-amine] | ≤ 1 | ≤ 5 |
| C=CCn1cc2c(n1)CCc1c-2sc2ncnc(Nc3ccc(OCc4cccc(F)c4)c(Cl)c3)c12 [Example 128, 2-allyl-N-{3-chloro-4-[(3-fluorobenzyl)oxy]phenyl}-4,5-dihydro-2H-pyrimido[5′,4′:4,5]thieno[2,3-e]indazol-6-amine trifluoroacetate (Salt)] | ≤ 1 | ≤ 50 |
| Fc1cccc(COc2ccc(Nc3ncnc4sc5c(c34)CCc3nn(CCNCCN4CCOCC4)cc3-5)cc2Cl)c1 [Example 68, N-{3-chloro-4-[(3-fluorobenzyl)oxy]phenyl}-2-{2-[(2-morpholin-4-ylethyl)amino]ethyl}-4,5-dihydro-2H-pyrimido[5′,4′:4,5]thieno[2,3-e]indazol-6-amine] | ≤ 1 | ≤ 5 |
| Clc1cc(Nc2ncnc3sc4c(c23)CCc2n[nH]cc2-4)ccc1OCc1ccccc1 [Example 127, N-[4-(benzyloxy)-3-chlorophenyl]-4,5-dihydro-2H-pyrimido[5′,4′:4,5]thieno[2,3-e]indazol-6-amine] | ≤ 1 | ≤ 5 |
